# How the values were obtained:
# [1] = Appearance of EGCG/complexing agent mixed systems (Example 1); assay type: physicochemical; conditions: 0.6 wt % EGCG and 0.6 wt % CA
# Procedure: (§1) Stock solutions containing 1.2 wt % EGCG were prepared by adding the powder to de-ionized water (conductivity=18.2 MΩ.cm) and stirring at 40° C. […] Stock solutions of pectin, were prepared by dissolving powder in de-ionized water at 80° C. for 1 hour and then cooling to 25° C. After dissolving the material, the pH of all samples, except for the WPI, was adjusted to 5.0 using 0.01 HCl or 0.1 M NaOH. The WPI was used at a pH of 6.5 to avoid precipitation of the whey proteins. In all cases the maximum ionic strength would remain below 10 mM. After setting the pH, mixed systems were prepared by quickly adding a fixed weight of the stock EGCG-solution into the same weight of complexing agent (CA)-solution under continuous stirring. Thus the final samples contained 0.6 wt % EGCG and 0.6 wt % CA.
# [2] = Dynamic light scattering particle size of EGCG/complexing agent mixed systems (Example 1); assay type: physicochemical; conditions: 0.6 wt % EGCG and 0.6 wt % CA; DLS at 25° C., undiluted; volume-averaged; one value per peak where more than one peak
# Procedure: as §1
# DLS measurements were performed within 4 hours after sample preparation using a Zetasizer Nano ZS instrument (Malvern Instruments, Malvern, UK). This instrument records intensity fluctuations of scattered light at a fixed angle from clear samples containing particles between 1 and 1000 nm in size. These fluctuations are converted into an autocorrelation function spanning time scales between picoseconds and seconds. The instrument software fits intensity- and volume-weighed size distributions to the recorded autocorrelations. Samples were measured without any dilution at 25° C. […]
# [3] = 1H-NMR estimate of non-complexed (free) EGCG in mixed systems with complexing agent; assay type: binding; conditions: 0.6 wt % EGCG and 0.6 wt % CA in de-ionized water; pH 5.0 (WPI pH 6.5); 1H-NMR at 27° C.
# Procedure: as §1
# Proton-NMR measurements were carried out on 0.6 ml samples in 5 mm NMR tubes at 27° C. using a Bruker AV600 NMR spectrometer. Prior to measurement, 5% (w/w) of D2O was added to each sample. The spectra were acquired with presaturation of the water signal using the Bruker pulse program: noesygppr1d. A signal at ˜4.7 ppm was from residual water and was ignored for data analysis purposes. […] This calibration curve was used to estimate the amount of non-complexed (or “free”) EGCG in the samples.
Appearance [1],Average Particle Size (nm) [2],Compound,Amount of EGCG free in solution (wt % of total EGCG) [3]
Transparent,2 nm,O=C(O)[C@@H]1CCCN1 [L-proline],100 wt % of total EGCG
,,poly-L-proline,0 wt % of total EGCG
